Target: T1, MAGL protein (Homo sapiens, UniProt Q99685)
T1 sequence (Q99685 1-303): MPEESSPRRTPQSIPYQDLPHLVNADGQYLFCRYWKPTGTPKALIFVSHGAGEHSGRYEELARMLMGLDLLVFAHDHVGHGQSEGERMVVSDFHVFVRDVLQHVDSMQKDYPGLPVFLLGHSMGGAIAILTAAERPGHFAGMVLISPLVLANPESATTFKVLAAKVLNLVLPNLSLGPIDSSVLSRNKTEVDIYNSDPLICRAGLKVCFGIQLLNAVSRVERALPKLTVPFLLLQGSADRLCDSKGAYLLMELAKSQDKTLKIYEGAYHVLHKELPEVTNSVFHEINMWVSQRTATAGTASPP
Experiment: 2-AG assay: MAGL inhibitory activity by hydrolysis of 2-arachidonoylglycerol to arachidonic acid, followed by mass spectrometry
Assay type: biochemical
Details: 8 μM 2-arachidonoylglycerol, 15 min preincubation, 30 min reaction at RT, RapidFire MS readout
Outline: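 Activity was measured by RapidFire SPE–triple-quad MS as the ratio of arachidonic acid to d8-arachidonic acid after 2-AG hydrolysis (8 μM substrate, 30 min, RT, acetonitrile quench). Compounds, tested from 12.5 μM down to […], were first preincubated 15 min with MAGL in TRIS/EDTA/Tween-20 buffer containing 2.5% DMSO.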

Row | Compound | IC50 [nM]
1 | O=C(N1CCC(COc2cc(F)cc(C(F)(F)F)c2)CC1)N1CC2(CC(c3nc(C4(O)CC4)n[nH]3)C2)C1 [Example 921, [4-[[3-fluoro-5-(trifluoromethyl)phenoxy]methyl]piperidino]-[6-[3-(1-hydroxycyclopropyl)-1H-1,2,4-triazol-5-yl]-2-azaspiro[3.3]heptan-2-yl]methanone] | 31.5
2 | CS(=O)(=O)c1cc(C(F)(F)F)ccc1CC1CC2(C1)CN(C(=O)N1CC3(CC(c4nnc(C5CC5)[nH]4)C3)C1)C2 [compound 39] | 0.15
3 | O=C(N1CC2(CC(Cc3nc(C(F)(F)F)cs3)C2)C1)N1CC2(CC(c3nc(C4CC(F)(F)C4)n[nH]3)C2)C1 [compound 489] | 75.3
4 | O=C(N1CC2(CC(c3nc(C4CC4)n[nH]3)C2)C1)N1CC2(CC(S(=O)(=O)c3cccc(OC(F)(F)F)c3)C2)C1 [compound 533] | 5.57
5 | N#Cc1cc(CC2CC3(C2)CN(C(=O)N2CC4(CC(c5nc(C6(F)CC6)n[nH]5)C4)C2)C3)cc(C(F)(F)F)c1 [compound 464] | 0.07
6 | Cc1nc(CN2CCN(C(=O)N3CC4(CC(c5nc(C6CC6)n[nH]5)C4)C3)CC2)co1 [Example 879, [6-(3-cyclopropyl-1H-1,2,4-triazol-5-yl)-2-azaspiro[3.3]heptan-2-yl]-[4-[(2-methyloxazol-4-yl)methyl]piperazino]methanone] | 300
7 | CS(=O)(=O)c1ccc(OC2CCC3(C2)CN(C(=O)N2CC4(CC(c5nnc(C6CC6)[nH]5)C4)C2)C3)cc1C(F)(F)F (racemic) [compound 155] | 1.99
8 | O=C(N1CC(c2ccc(-n3ccc(C(F)(F)F)cc3=O)cc2)C1)N1CC2(CC(c3nnc(C4CC4)[nH]3)C2)C1 [compound 284] | 1.59
9 | O=C(N1CC(c2ccc(-n3ccc(C(F)(F)F)n3)cc2)C1)N1CC2(CC(c3nnc(C4CC4)[nH]3)C2)C1 [compound 873] | 0.67
10 | O=C(N1CC(c2cnc(N3CC[C@@H](C(F)(F)F)C3)nc2)C1)N1CC2(CC(c3nc(C4CC4)n[nH]3)C2)C1 (single isomer, unassigned) [compound 265] | 4.38
11 | O=C(N1CC2(CC(Cc3ccc(C(F)(F)F)cn3)C2)C1)N1CC2(CC(c3nc(C4CC(F)(F)C4)n[nH]3)C2)C1 [compound 661] | 21.9
12 | O=C(N1CC2(CC(NC3(C(F)(F)F)CC3)C2)C1)N1CC2(CC(c3nnc(C4CC4)[nH]3)C2)C1 [compound 70] | 7.25
13 | O=C(N1CC(c2ccc(N3CC(O)(C(F)(F)F)C3)nc2)C1)N1CC2(CC(c3nc(C4CC(F)(F)C4)n[nH]3)C2)C1 [compound 646] | 424
14 | CC(C)(O)C1CN(c2ccc(C3CN(C(=O)N4CC5(CC(c6nnc(C7CC7)[nH]6)C5)C4)C3)cn2)C1 [compound 298] | 8.03
15 | CS(=N)(=O)c1ccc(CC2CC3(C2)CN(C(=O)N2CC4(CC(c5nc(C6CC(F)(F)C6)n[nH]5)C4)C2)C3)cc1 (stereo not drawn) [compound 976] | 1790
16 | O=C(N1CC2(CC(Cc3cc(C(F)F)[nH]n3)C2)C1)N1CC2(CC(c3nc(C4CC(F)(F)C4)n[nH]3)C2)C1 [compound 495] | 140
17 | O=C(N1CC2(CC(c3nnc(C4CCC4)[nH]3)C2)C1)N1CC2(C1)CN(S(=O)(=O)c1ccc(OC(F)(F)F)cc1)C2 [compound 93] | 143
18 | Cn1cc(CN2CC3(C2)CN(C(=O)N2CC4(CC(c5nc(C6CC6)n[nH]5)C4)C2)C3)c(C(F)(F)F)n1 [compound 472] | 17.7
19 | O=C(N1CC(C23CC(Cn4cc(C(F)(F)F)ccc4=O)(C2)C3)C1)N1CC2(CC(c3nc(C4CC4)n[nH]3)C2)C1 [compound 946] | 1.05
20 | CS(=O)(=O)c1ccc(CC2CC3(C2)CN(C(=O)N2CC4(CC(c5nnc(C6CC6)[nH]5)C4)C2)C3)nc1 [compound 119] | 6.52
21 | Cn1ncc(CC2CC3(C2)CN(C(=O)N2CC4(CC(c5nc(C6CC(F)(F)C6)n[nH]5)C4)C2)C3)c1C(F)(F)F [compound 530] | 13.9
22 | N#Cc1cc(CC2CC3(C2)CN(C(=O)N2CC4(CC(c5nnc(C6CC6)[nH]5)C4)C2)C3)cnc1C(F)(F)F [compound 833] | 0.39
23 | NC(=O)C1(c2ccc(C3CN(C(=O)N4CC5(CC(c6nnc(C7CC7)[nH]6)C5)C4)C3)cc2)CC1 [Example 393, 1-[4-[1-[6-(5-cyclopropyl-4H-1,2,4-triazol-3-yl)-2-azaspiro[3.3]heptane-2-carbonyl]azetidin-3-yl]phenyl]cyclopropanecarboaamide] | 1.2
24 | N#Cc1ccc(CC2CC3(C2)CN(C(=O)N2CC4(CC(c5nc(C6COC6)n[nH]5)C4)C2)C3)cc1C(F)(F)F [compound 771] | 7.02
25 | O=C(N1CC2(CC(c3nnc(C4CC4)[nH]3)C2)C1)N1CC2(CN(Cc3ncc(F)cc3F)C2)C1 [compound 165] | 30.9
26 | O=C(N1CC2(CCC(Cc3cnc(C(F)(F)F)cn3)CC2)C1)N1CC2(CC(c3nnc(C4CC4)[nH]3)C2)C1 [compound 136] | 0.57

Row | Compound | IC50 [nM]
27 | O=C(N1CC2(CC(Cc3ncc(C(F)(F)F)cc3F)C2)C1)N1CC2(CC(c3nc(C4CC(F)(F)C4)n[nH]3)C2)C1 [compound 508] | 6.66
28 | Cc1nc(CN2CC3(C2)CN(C(=O)N2CC4(CC(c5nnc(C6CC6)[nH]5)C4)C2)C3)cs1 [compound 896] | 209
29 | COCn1cnc(-c2ccccc2CN2CC3(C2)CN(C(=O)N2CC4(CC(c5nnc(C6CC6)[nH]5)C4)C2)C3)n1 [compound 174] | 40.7
30 | CC(C)(C)Cc1nnc(C23CC(C4CCN(C(=O)N5CC6(CC(c7nc(C8CC8)n[nH]7)C6)C5)CC4)(C2)C3)o1 [compound 439] | 4.22
31 | O=C(N1CC2(CC(c3nc(C4(F)CC4)n[nH]3)C2)C1)N1CC2(CN(Cc3ccc(S(=O)(=O)C(F)(F)F)cc3)C2)C1 [compound 427] | 1.33
32 | CS(=O)(=O)c1ccc(-c2ccc(C3CN(C(=O)N4CC5(CC(c6ncn[nH]6)C5)C4)C3)cc2)c(Cl)c1 [compound 981] | 1770
33 | N#Cc1cc(CC2CC3(C2)CN(C(=O)N2CC4(CC(c5nc(C6COC6)n[nH]5)C4)C2)C3)cc(C(F)(F)F)c1 [compound 759] | 11
34 | CS(=O)(=O)c1cccc(CC2CC3(C2)CN(C(=O)N2CC4(CC(c5nnc(C6CC6)[nH]5)C4)C2)C3)c1 [compound 15] | 1.33
35 | O=C(N1CC2(CC(Cn3cnc(C(F)(F)F)n3)C2)C1)N1CC2(CC(c3nc(C4CC(F)(F)C4)n[nH]3)C2)C1 [compound 441] | 414
36 | O=C(N1CC2(CC(c3nc(C4CC4)n[nH]3)C2)C1)N1CC2(CN(Cc3nc(CC4CC4)no3)C2)C1 [compound 733] | 29.5
37 | O=C(N1CCC(COc2ccc(F)c(C(F)(F)F)c2)CC1)N1CC2(CC(c3nc(C4(O)CC4)n[nH]3)C2)C1 [Example 916, [4-[[4-fluoro-3-(trifluoromethyl)phenoxy]methyl]piperidino]-[6-[3-(1-hydroxycyclopropyl)-1H-1,2,4-triazol-5-yl]-2-azaspiro[3.3]heptan-2-yl]methanone] | 39.7
38 | O=C(N1CC2(CC(c3nc(C4CC(F)(F)C4)n[nH]3)C2)C1)N1CC2(CN(Cc3cnc(C(F)(F)F)cn3)C2)C1 [compound 750] | 445
39 | N=S(=O)(c1ccc(COC2CN(C(=O)N3CC4(CC(c5nc(C6(O)CC6)n[nH]5)C4)C3)C2)c(F)c1)C(F)(F)F (stereo not drawn) [Example 576, [3-[2-fluoro-4-(trifluoromethylsulfonimidoyl)benzyl]oxyazetidin-1-yl]-[6-[3-(1-hydroxycyclopropyl)-1H-1,2,4-triazol-5-yl]-2-azaspiro[3.3]heptan-2-yl]methanone] | 85.1
40 | Cc1cc(C23CC(C4CN(C(=O)N5CC6(CC(c7nc(C8CC8)n[nH]7)C6)C5)C4)(C2)C3)[nH]n1 [compound 595] | 3.63
41 | Cc1cc(C(C)(C)C)nn1-c1ccc(C2CN(C(=O)N3CC4(CC(c5nc(C6(O)CC6)n[nH]5)C4)C3)C2)cc1 [compound 820] | 0.77
42 | O=C(N1CC(c2ccc(N3CCC4(COC4)C3)nc2)C1)N1CC2(CC(c3nnc(C4CC4)[nH]3)C2)C1 [Example 303, [6-(5-cyclopropyl-4H-1,2,4-triazol-3-yl)-2-azaspiro[3.3]heptan-2-yl]-[3-[6-(2-oxa-7-azaspiro[3.4]octan-7 yl)-3-pyridyl]azetidin-1-yl]methanone] | 6.31
43 | O=C(N1CC2(CC(Cc3ccc(C(F)(F)F)cc3F)C2)C1)N1CC2(CC(c3nnc(C4(O)CC4)[nH]3)C2)C1 [compound 38] | 0.01
44 | O=C(N1CC2(CC(Cc3ccc(C(F)(F)F)nn3)C2)C1)N1CC2(CC(c3nnc(C4(O)CC4)[nH]3)C2)C1 [compound 23] | 4.43
45 | O=C(N1CC(c2ccc(NCC3(C(F)(F)F)CC3)nc2)C1)N1CC2(CC(c3nnc(C4(O)CC4)[nH]3)C2)C1 [compound 254] | 1.25
46 | O=C(N1CC(c2ccc(N3CC[C@H](C(F)(F)F)C3)nc2)C1)N1CC2(CC(c3nnc(C4CC4)[nH]3)C2)C1 [compound 267] | 0.31
47 | O=C(N1CC(c2ccc(C3(C(F)(F)F)CC3)cn2)C1)N1CC2(CC(c3nc(C4(O)CC4)n[nH]3)C2)C1 [compound 471] | 20.3
48 | O=C(N1CC2(CC(c3nc(C4CC4)n[nH]3)C2)C1)N1CC2(CN(Cc3ncc(C(F)F)s3)C2)C1 [compound 624] | 8.21
49 | O=C(N1CC(C23CC(c4nnc(C5(C(F)(F)F)CC5)s4)(C2)C3)C1)N1CC2(CC(c3nc(C4(O)CC4)n[nH]3)C2)C1 [compound 447] | 101
50 | COc1cc(F)cc(C23CC(C4CN(C(=O)N5CC6(CC(c7nc(C8CC8)n[nH]7)C6)C5)C4)(C2)C3)c1 [compound 705] | 0.57
51 | O=C(N1CC2(CC(Cc3ccc4nc(C(F)(F)F)cn4c3)C2)C1)N1CC2(CC(c3nc(C4CC4)n[nH]3)C2)C1 [compound 990] | 0.59

From patent US20250099448A1, “HETEROCYCLIC COMPOUNDS” (Hoffmann-La Roche Inc., priority 2022, published 2025)
